Source: ChEMBL document CHEMBL5257069, “Structure-activity relationship analysis of activity-based probes targeting HTRA family of serine proteases” (Bioorg Med Chem Lett, 2023)
Calls of active or inactive are those of the source. No cut-off for these calls is given here.

Key:
[1] = target: T1, Periplasmic serine endoprotease DegP (Escherichia coli (strain K12)) (UniProt P0C0V0); test: Binding affinity to Escherichia coli DegP assessed as appearance of fluorescent bands at 1 to 50 uM incubated for 1 hrs by SDS-PAGE based gel fluorescence scanning analysis; details: dose 1-50 µM
T1 sequence (whole entry): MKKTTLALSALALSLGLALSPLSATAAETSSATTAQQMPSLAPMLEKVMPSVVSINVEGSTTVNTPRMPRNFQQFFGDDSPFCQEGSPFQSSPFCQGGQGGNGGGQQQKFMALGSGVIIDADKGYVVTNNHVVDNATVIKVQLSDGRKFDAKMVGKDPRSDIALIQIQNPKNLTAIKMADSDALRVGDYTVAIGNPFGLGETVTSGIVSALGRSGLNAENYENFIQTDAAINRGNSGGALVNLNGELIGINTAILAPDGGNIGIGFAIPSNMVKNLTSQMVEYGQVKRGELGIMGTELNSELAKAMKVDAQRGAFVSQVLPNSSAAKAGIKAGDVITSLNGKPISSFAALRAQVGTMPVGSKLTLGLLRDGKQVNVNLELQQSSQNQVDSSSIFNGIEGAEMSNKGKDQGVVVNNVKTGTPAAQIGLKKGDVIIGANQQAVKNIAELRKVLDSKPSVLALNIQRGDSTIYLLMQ

[2] = target: T2, Serine protease HTRA2, mitochondrial (Homo sapiens, UniProt O43464); test: Inhibition of recombinant human HTRA2 using H2-OPT as substrate assessed as increase in fluorescence and measured for 2 hrs by fluorescent plate reader analysis
T2 sequence (O43464 whole entry): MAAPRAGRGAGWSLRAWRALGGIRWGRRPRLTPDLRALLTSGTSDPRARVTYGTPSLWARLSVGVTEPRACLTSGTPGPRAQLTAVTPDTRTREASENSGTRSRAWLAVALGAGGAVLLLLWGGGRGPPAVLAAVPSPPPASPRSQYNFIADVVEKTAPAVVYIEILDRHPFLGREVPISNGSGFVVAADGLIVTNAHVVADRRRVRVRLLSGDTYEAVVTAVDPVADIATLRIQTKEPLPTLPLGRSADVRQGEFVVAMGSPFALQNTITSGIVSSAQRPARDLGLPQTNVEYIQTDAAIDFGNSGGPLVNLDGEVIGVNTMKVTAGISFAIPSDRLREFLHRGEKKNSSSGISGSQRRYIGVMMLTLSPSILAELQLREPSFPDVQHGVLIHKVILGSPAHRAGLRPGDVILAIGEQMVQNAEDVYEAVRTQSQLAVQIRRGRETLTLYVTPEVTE

[3] = target: T1, Periplasmic serine endoprotease DegP (Escherichia coli (strain K12)); test: Binding affinity to Escherichia coli DegP assessed as appearance of fluorescent bands at 10 uM incubated for 2 hrs by SDS-PAGE based gel fluorescence scanning analysis
[4] = target: T1, Periplasmic serine endoprotease DegP (Escherichia coli (strain K12)); test: Binding affinity to recombinant Escherichia coli DegP assessed as increase in fluorescence using H2-OPT as substrate at 1 uM by SDS-PAGE based gel fluorescence scanning analysis
[5] = target: T3, Serine protease HTRA2, mitochondrial (Homo sapiens) (UniProt O43464); test: Binding affinity to recombinant human HTRA2 assessed as increase in fluorescence using H2-OPT as substrate at 1 uM by SDS-PAGE based gel fluorescence scanning analysis
T3 sequence (whole entry): T2 sequence (O43464 whole entry)

[6] = target: Chymotrypsin (Homo sapiens) (UniProt Q99895+P17538+P40313+Q6GPI1); test: Binding affinity to recombinant human chymotrypsin assessed as increase in fluorescence using H2-OPT as substrate at 1 uM by SDS-PAGE based gel fluorescence scanning analysis; type: protein assay
Trypsin (Homo sapiens) = Trypsin (Homo sapiens) (UniProt P07477+P07478+P35030); test: Binding affinity to recombinant human trypsin assessed as increase in fluorescence using H2-OPT as substrate at 1 uM by SDS-PAGE based gel fluorescence scanning analysis; type: protein assay
[7] = target: T4, Neutrophil elastase (Homo sapiens) (UniProt P08246); test: Binding affinity to recombinant human neutrophil elastase assessed as increase in fluorescence using H2-OPT as substrate at 1 uM by SDS-PAGE based gel fluorescence scanning analysis; type: single protein
T4 sequence (whole entry): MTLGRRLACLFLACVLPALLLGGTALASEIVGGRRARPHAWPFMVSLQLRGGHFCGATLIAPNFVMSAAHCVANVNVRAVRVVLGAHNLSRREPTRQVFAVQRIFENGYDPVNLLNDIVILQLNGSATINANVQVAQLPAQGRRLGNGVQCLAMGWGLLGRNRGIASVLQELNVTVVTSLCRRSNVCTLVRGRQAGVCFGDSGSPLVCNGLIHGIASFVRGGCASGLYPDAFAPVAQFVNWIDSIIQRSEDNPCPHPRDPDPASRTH

Albumin [8] = target: Albumin (Homo sapiens, UniProt P02768); test: Binding affinity to human serum albumin assessed as appearance of fluorescent bands at 2 uM by SDS-PAGE based In-gel fluorescence analysis
Chain of Albumin (Homo sapiens, UniProt P02768) (P02768 whole entry): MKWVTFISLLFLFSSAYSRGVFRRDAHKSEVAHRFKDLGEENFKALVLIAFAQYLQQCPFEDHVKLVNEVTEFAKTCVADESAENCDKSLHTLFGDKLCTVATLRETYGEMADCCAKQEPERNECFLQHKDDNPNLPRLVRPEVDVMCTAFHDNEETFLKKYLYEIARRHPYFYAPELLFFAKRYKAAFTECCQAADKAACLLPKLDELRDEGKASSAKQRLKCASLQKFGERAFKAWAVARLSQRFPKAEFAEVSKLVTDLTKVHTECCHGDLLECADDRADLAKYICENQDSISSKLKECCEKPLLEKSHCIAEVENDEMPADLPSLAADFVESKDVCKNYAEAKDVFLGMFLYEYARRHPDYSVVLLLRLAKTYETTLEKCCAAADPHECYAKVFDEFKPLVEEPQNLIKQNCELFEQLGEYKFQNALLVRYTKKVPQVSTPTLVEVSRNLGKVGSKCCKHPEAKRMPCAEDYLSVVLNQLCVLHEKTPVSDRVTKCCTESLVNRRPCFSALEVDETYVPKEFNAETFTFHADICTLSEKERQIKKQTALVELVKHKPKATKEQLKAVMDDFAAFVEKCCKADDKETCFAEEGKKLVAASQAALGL

Serine protease HTRA1 [9] = target: T5, Serine protease HTRA1 (Homo sapiens, UniProt Q92743); test: Binding affinity to human HTRA1 in Amyloid-beta treated human U-87 MG cells assessed as appearance of fluorescent bands at 5 uM by SDS-PAGE based In-gel fluorescence analysis; type: cell-based
T5 sequence (Q92743 whole entry): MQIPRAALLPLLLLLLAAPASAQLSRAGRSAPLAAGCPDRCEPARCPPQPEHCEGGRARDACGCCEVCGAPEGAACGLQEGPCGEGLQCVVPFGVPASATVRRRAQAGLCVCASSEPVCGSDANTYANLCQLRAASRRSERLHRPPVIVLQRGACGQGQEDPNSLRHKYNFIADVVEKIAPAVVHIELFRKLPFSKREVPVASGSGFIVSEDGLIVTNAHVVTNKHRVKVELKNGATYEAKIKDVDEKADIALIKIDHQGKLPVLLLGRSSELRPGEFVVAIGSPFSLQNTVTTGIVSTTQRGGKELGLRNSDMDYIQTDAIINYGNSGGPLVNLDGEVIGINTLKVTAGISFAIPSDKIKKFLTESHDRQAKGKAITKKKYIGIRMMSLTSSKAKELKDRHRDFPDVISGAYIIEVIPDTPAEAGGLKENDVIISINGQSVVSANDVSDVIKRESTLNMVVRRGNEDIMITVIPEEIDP

Serine protease HTRA1 [10] = target: T5, Serine protease HTRA1; test: Binding affinity to recombinant human HTRA1 in human serum assessed as appearance of fluorescent bands at 2 uM by In-gel fluorescence analysis; type: cell-free
Serine protease HTRA1 [11] = target: T5, Serine protease HTRA1; test: Inhibition of recombinant human HTRA1 using H2-OPT as substrate assessed as increase in fluorescence and measured for 2 hrs by fluorescent plate reader analysis
Serine protease HTRA1 [12] = target: T5, Serine protease HTRA1; test: Binding affinity to human HTRA1 in human U-87 MG cells assessed as appearance of fluorescent bands at 5 uM by SDS-PAGE based In-gel fluorescence analysis; type: cell-based
Albumin [13] = target: Albumin (Bos taurus, UniProt P02769); test: Binding affinity to bovine serum albumin in human U-87 MG cell culture media assessed as appearance of fluorescent bands at 5 uM by SDS-PAGE based In-gel fluorescence analysis; details: cattle
Chain of Albumin (Bos taurus, UniProt P02769) (P02769 whole entry): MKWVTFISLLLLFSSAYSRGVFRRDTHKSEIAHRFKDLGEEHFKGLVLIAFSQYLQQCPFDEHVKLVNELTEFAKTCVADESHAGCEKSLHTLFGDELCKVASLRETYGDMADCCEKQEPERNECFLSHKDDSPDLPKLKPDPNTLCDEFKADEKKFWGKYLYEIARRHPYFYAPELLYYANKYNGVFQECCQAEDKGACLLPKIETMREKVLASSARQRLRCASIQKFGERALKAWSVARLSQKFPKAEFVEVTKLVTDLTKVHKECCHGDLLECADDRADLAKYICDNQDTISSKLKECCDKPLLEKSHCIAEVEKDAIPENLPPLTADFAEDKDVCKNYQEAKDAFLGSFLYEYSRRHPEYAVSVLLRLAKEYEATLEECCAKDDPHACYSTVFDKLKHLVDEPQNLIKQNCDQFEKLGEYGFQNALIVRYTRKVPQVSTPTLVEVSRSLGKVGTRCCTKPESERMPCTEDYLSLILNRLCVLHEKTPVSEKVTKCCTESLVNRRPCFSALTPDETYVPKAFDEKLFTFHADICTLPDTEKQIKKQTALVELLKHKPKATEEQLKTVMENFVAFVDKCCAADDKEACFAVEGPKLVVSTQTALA

Serine protease HTRA1 [14] = target: T5, Serine protease HTRA1; test: Inhibition of recombinant human HTRA1 using H2-OPT as substrate assessed as increase in fluorescence at 1 uM and measured for 2 hrs by fluorescent plate reader analysis
[15] = target: T3, Serine protease HTRA2, mitochondrial (Homo sapiens); test: Inhibition of recombinant human HTRA2 using H2-OPT as substrate assessed as increase in fluorescence at 1 uM and measured for 2 hrs by fluorescent plate reader analysis

Compound | IC50 [2] [µM] | Activity [4] | Activity [5] | Activity [6] | Activity [7] | other results
CC[C@H](NC(=O)[C@H](CCCCN)NC(=O)[C@H](Cc1ccccc1)NC(=O)CCCCCNC(=O)c1ccc(C(=O)O)c(-c2c3ccc(=O)cc-3oc3cc(O)ccc23)c1)C(=O)N[C@@H](C(C)C)P(=O)(Oc1ccccc1)Oc1ccccc1 | 27 | Active |  |  |  | Activity [1]: Dose-Dependent Effect; Activity [3]: Active
CC(C)C[C@H](NC(=O)CCCCCNC(=O)c1ccc(C(=O)O)c(-c2c3ccc(=O)cc-3oc3cc(O)ccc23)c1)C(=O)N[C@@H](Cc1ccccc1)C(=O)N[C@@H](CC(C)(C)C)C(=O)N[C@@H](C(C)C)P(=O)(Oc1ccccc1)Oc1ccccc1 | 8.1 | inactive | Active |  |  | 
CC(C)[C@H](NC(=O)C1(NC(=O)[C@H](CCCCN)NC(=O)[C@H](Cc2ccccc2)NC(=O)CCCCCNC(=O)c2ccc(C(=O)O)c(-c3c4ccc(=O)cc-4oc4cc(O)ccc34)c2)CC1)P(=O)(Oc1ccccc1)Oc1ccccc1 |  | inactive | inactive | inactive | inactive | Activity (Trypsin (Homo sapiens)): inactive
CC(C)C[C@H](NC(=O)[C@H](CCCCN)NC(=O)[C@H](Cc1ccc2ccccc2c1)NC(=O)CCCCCNC(=O)c1ccc(C(=O)O)c(-c2c3ccc(=O)cc-3oc3cc(O)ccc23)c1)C(=O)N[C@@H](CC(C)C)P(=O)(Oc1ccccc1)Oc1ccccc1 |  |  | Active | Active | Active | 
CC(C)C[C@H](NC(=O)C1(NC(=O)[C@H](CCCCN)NC(=O)[C@H](Cc2ccccc2)NC(=O)CCCCCNC(=O)c2ccc(C(=O)O)c(-c3c4ccc(=O)cc-4oc4cc(O)ccc34)c2)CC1)P(=O)(Oc1ccccc1)Oc1ccccc1 |  | inactive | inactive | inactive | inactive | Activity (Trypsin (Homo sapiens)): inactive
CC(C)[C@H](NC(=O)[C@H](CC1CC1)NC(=O)[C@H](CCCCN)NC(=O)[C@H](Cc1ccccc1)NC(=O)CCCCCNC(=O)c1ccc(C(=O)O)c(-c2c3ccc(=O)cc-3oc3cc(O)ccc23)c1)P(=O)(Oc1ccccc1)Oc1ccccc1 | 8.3 |  | Active |  |  | Activity (Albumin [8]): Not Active; Activity (Serine protease HTRA1 [9]): Active; Activity (Serine protease HTRA1 [10]): Active; IC50 (Serine protease HTRA1 [11]): 6.3 µM; Activity (Serine protease HTRA1 [12]): Active
CC(C)C[C@H](NC(=O)CCCCCNC(=O)c1ccc(C(=O)O)c(-c2c3ccc(=O)cc-3oc3cc(O)ccc23)c1)C(=O)N[C@@H](Cc1ccccc1)C(=O)N[C@@H](CC1CC1)C(=O)N[C@@H](C(C)C)P(=O)(Oc1ccccc1)Oc1ccccc1 | 5.2 | inactive | Active |  |  | Activity (Albumin [13]): Active
CC(C)C[C@H](NC(=O)CCCCCNC(=O)c1ccc(C(=O)O)c(-c2c3ccc(=O)cc-3oc3cc(O)ccc23)c1)C(=O)N[C@@H](Cc1ccc2ccccc2c1)C(=O)N[C@@H](CC(C)C)C(=O)N[C@@H](C(C)C)P(=O)(Oc1ccccc1)Oc1ccccc1 | 5.4 | inactive | Active | Active | Active | 
NCCc1ccc(S(=O)(=O)F)cc1 | > 1000 |  |  |  |  | inhibition (Serine protease HTRA1 [14]): 20%; inhibition [15]: 20%; IC50 (Serine protease HTRA1 [11]): > 1000 µM
CC(C)C[C@H](NC(=O)[C@H](CCCCN)NC(=O)[C@H](Cc1ccc2ccccc2c1)NC(=O)CCCCCNC(=O)c1ccc(C(=O)O)c(-c2c3ccc(=O)cc-3oc3cc(O)ccc23)c1)C(=O)N[C@@H](C(C)C)P(=O)(Oc1ccccc1)Oc1ccccc1 | 12 |  | Active | Active | Active | 
O=C1C(=Cc2ccc(-c3ccccc3[N+](=O)[O-])o2)C(=O)N(c2ccccc2)C(=S)N1c1ccccc1 | 18 |  |  |  |  | IC50 (Serine protease HTRA1 [11]): > 50 µM
CC[C@H](NC(=O)[C@H](CCCCN)NC(=O)[C@H](Cc1ccccc1)NC(=O)CCCCCNC(=O)c1ccc(C(=O)O)c(-c2c3ccc(=O)cc-3oc3cc(O)ccc23)c1)C(=O)N[C@@H](CC(C)C)P(=O)(Oc1ccccc1)Oc1ccccc1 |  | inactive |  |  |  | 
CC(C)C[C@H](NC(=O)CCCCCNC(=O)c1ccc(C(=O)O)c(-c2c3ccc(=O)cc-3oc3cc(O)ccc23)c1)C(=O)N[C@@H](Cc1ccccc1)C(=O)NC1(C(=O)N[C@@H](C(C)C)P(=O)(Oc2ccccc2)Oc2ccccc2)CC1 |  | inactive | inactive | inactive | inactive | Activity (Trypsin (Homo sapiens)): inactive
CC(C)C[C@H](NC(=O)CCCCCNC(=O)c1ccc(C(=O)O)c(-c2c3ccc(=O)cc-3oc3cc(O)ccc23)c1)C(=O)N[C@@H](Cc1ccccc1)C(=O)N[C@@H](CC(C)C)C(=O)N[C@@H](C(C)C)P(=O)(Oc1ccccc1)Oc1ccccc1 | 7.8 |  |  |  |  | Activity (Albumin [8]): Not Active; Activity (Serine protease HTRA1 [10]): Active; IC50 (Serine protease HTRA1 [11]): 2 µM; Activity (Serine protease HTRA1 [12]): Active
CC(C)C[C@H](NC(=O)[C@H](CCCCN)NC(=O)[C@H](Cc1ccccc1)NC(=O)CCCCCNC(=O)c1ccc(C(=O)O)c(-c2c3ccc(=O)cc-3oc3cc(O)ccc23)c1)C(=O)N[C@@H](C(C)C)P(=O)(Oc1ccccc1)Oc1ccccc1 | 24 | Active |  |  |  | 
CC(C)[C@H](NC(=O)[C@H](CC(C)(C)C)NC(=O)[C@H](CCCCN)NC(=O)[C@H](Cc1ccccc1)NC(=O)CCCCCNC(=O)c1ccc(C(=O)O)c(-c2c3ccc(=O)cc-3oc3cc(O)ccc23)c1)P(=O)(Oc1ccccc1)Oc1ccccc1 |  | inactive |  |  |  | 
